Legend:
Assay type in all cases: cell-based
[1] = tested on: NIH-3T3 (mouse embryonic fibroblast) cells; experiment: Nucleic acid transfection experiment (oligo DNA level), FITC-labeled single-strand DNA, FACS; details: 0.3 μg FITC-labeled single-strand DNA (20 mer), 4 hours at 37° C.
Method: (§1) PC3 ([…]) cells, UMUC3 (human bladder carcinoma) cells, T24 (human urinary bladder carcinoma) cells and NIH-3T3 (mouse embryonic fibroblast) cells were separately precultured in a 12-well plate, either in a 10% FBS-containing RPMI medium (PC3 cells, NIH-3T3 cells, and T24 cells) or in a 10% FBS-containing DMEM medium (UMUC cells), to attain a 60 to 70% confluent state.
(§2) A 1 μl quantity of each of the compounds shown in Table 1 [solutions containing compound (1-A) or (1-B) at 0.37, 0.13 and 0.04 mM] was added to each of a corresponding number of containers each holding 50 μl of non-serum medium, mixed by tapping, and incubated at room temperature for 5 minutes. Subsequently, 0.3 μg of FITC-labeled single-strand DNA (20 mer) (FITC-[…]: product of Proligo) was added to each of the above-prepared media containing a carrier for nucleic acid transfection, mixed by tapping, and incubated at 37° C. for 30 minutes (mixed by tapping every 10 minutes). The obtained mixtures were separately added to the above wells in which the cell culture had been completed, leveled by lightly tapping, and then incubated at 37° C. for 4 hours. The cells were collected, and FITC-positive cells were counted by FACS to calculate DNA transfection efficiency (%) in cells. Further, for the comparison with conventional carriers for nucleic acid transfection (Lipofectamine 2000, TransIt-TKO, and Fugene 6), siRNA transfection efficiency (%) in PC3 cells was calculated in the same manner as above using the protocol recommended by the respective manufacturer and corresponding to a transfection nucleic acid amount of 0.3 μg.

[2] = tested on: PC3 (human lung adenocarcinoma) cells; experiment: as above; details: for DNA transfection efficiency in cells (%): PC3, 0.3 μg FITC-labeled single-strand DNA (20 mer), 4 hours at 37° C.
Method: as §1, §2

[3] = tested on: T24 (human urinary bladder carcinoma) cells; experiment: as above; details: 0.3 μg FITC-labeled single-strand DNA (20 mer), 4 hours at 37° C.
Method: as §1, §2

[4] = tested on: UMUC3 (human bladder carcinoma) cells; experiment: as above; details: 0.3 μg FITC-labeled single-strand DNA (20 mer), 4 hours at 37° C.
Method: as §1, §2

[5] = tested on: PC3 (human lung adenocarcinoma) cells; experiment: Nucleic acid transfection experiment (siRNA level), FITC-labeled siRNA, flow cytometer; details: compounds (1-A)/(1-B): 0.6 mM), 0.5 μg FITC-labeled siRNA, 2 hours
Method: (§3) In order to attain 50 to 60% confluence at the time of siRNA transfection, PC3 ([…]) cells, UMUC3 (human bladder carcinoma) cells and T24 (human urinary bladder carcinoma) cells were separately seeded in a 6-well plate on the day before the transfection and cultured at 37° C. in a 5% CO2 incubator.
(§4) A 100-μl quantity of Opti-MEM was added to each of several 1.5-ml tubes, and two samples each of 1, 3 and 10 μl of PBS solution containing the carriers for nucleic acid transfection of Reference Example 3 in one of the two samples and Reference Example 8 in the other sample (each carrier for nucleic acid transfection content had been adjusted so that compound (1L-A) was at 0.067 mM) were separately added to each tube and then left to stand at room temperature for about 10 minutes. Further, 0.5 μg of FITC-labeled siRNA (fluorescent labeled siRNA ((sense)Fluo-[…]/(antisense)[…]: product of Proligo) was added to each tube and then left to stand for 15 minutes, forming a complex of siRNA and the carrier for gene transfection.
(§5) Separately, 50 μl of Opti-MEM was added to each of several 1.5-ml tubes, and two samples each of 1, 3 and 10 μl of PBS solution containing 0.6 mM compound (1-A) in one of the two samples and 0.6 mM compound (1-B) in the other sample were separately added to each tube, mixed by tapping, and then left to stand at room temperature for 5 minutes. Further, 0.5 μg of FITC-labeled siRNA (same as above) was added to each tube and then left to stand for 30 minutes, forming a complex of the siRNA and carrier for gene transfection.
(§6) After a while, the prepared solutions containing the siRNA and carrier for gene transfection were separately added to the wells in which the cells were present at 50 to 60% confluence. The plates were slowly pitched and rolled, and culture was then performed at 37° C. under a condition of 5% CO2 for 2 hours. After the culture was completed, FITC-positive cells were counted by a flow cytometer to calculate the siRNA transfection efficiency (%) in cells. Further, for comparison with conventional carriers for nucleic acid transfection (Lipofectamine 2000, TransIt-TKO, Metafectene, and oligofectamine), siRNA transfection efficiency (%) in cells was calculated in the same manner as above using the protocol recommended by the respective manufacture and corresponding to a transfection nucleic acid amount of 0.5 μg.

[6] = tested on: T24 (human urinary bladder carcinoma) cells; experiment: as above; details: compounds (1-A)/(1-B): 0.6 mM), 0.5 μg FITC-labeled siRNA, 2 hours
Method: as §3, §4, §5, §6

[7] = tested on: UMUC3 (human bladder carcinoma) cells; experiment: as above; details: compounds (1-A)/(1-B): 0.6 mM), 0.5 μg FITC-labeled siRNA, 2 hours
Method: as §3, §4, §5, §6

[8] = 1 μl of 0.04 mM compound solution
[9] = 1 μl of 0.13 mM compound solution
[10] = 1 μl of 0.37 mM compound solution
[11] = amount 1 μl of carrier solution (Reference Examples: 0.067 mM as compound (1L-A)
[12] = amount 3 μl of carrier solution (Reference Examples: 0.067 mM as compound (1L-A)
[13] = amount 10 μl of carrier solution (Reference Examples: 0.067 mM as compound (1L-A)

N=C(N)NCCCC(N)C(=O)CC(CNC(=N)N)C(=O)NC(CCCNC(=N)N)C(=O)NCCCCC(N)C(=O)NC(CCCCNC(=O)C(CCCNC(=N)N)NC(=O)C(CNC(=N)N)CC(=O)C(N)CCCNC(=N)N)C(=O)NC(CCCCNC(=O)C(CCCNC(=N)N)NC(=O)C(CNC(=N)N)CC(=O)C(N)CCCNC(=N)N)C(=O)NC(CCCCNC(=O)C(CCCNC(=N)N)NC(=O)C(CNC(=N)N)CC(=O)C(N)CCCNC(=N)N)C(=O)NC(CCCCNC(=O)C(CCCNC(=N)N)NC(=O)C(CNC(=N)N)CC(=O)C(N)CCCNC(=N)N)C(=O)NCCCCCC(=O)NCCCCCC(N)=O (stereo not shown) [(1-B)]
DNA transfection efficiency in cells (%) [1, 8]: 84.0%
DNA transfection efficiency in cells (%) [1, 9]: 93.2%
DNA transfection efficiency in cells (%) [1, 10]: 87.0%
DNA transfection efficiency in cells (%) [2, 8]: 65.0%
DNA transfection efficiency in cells (%) [2, 9]: 76.1%
DNA transfection efficiency in cells (%) [2, 10]: 83.8%
suitability for introducing nucleic acids into cells (conclusion from Table 1) ([2]; conclusion over PC3, UMUC3, T24 and NIH-3T3 cells): excellently suitable for introducing nucleic acids into cells
DNA transfection efficiency in cells (%) [3, 8]: 13.4%
DNA transfection efficiency in cells (%) [3, 9]: 26.0%
DNA transfection efficiency in cells (%) [3, 10]: 31.4%
DNA transfection efficiency in cells (%) [4, 8]: 61.7%
DNA transfection efficiency in cells (%) [4, 9]: 77.2%
DNA transfection efficiency in cells (%) [4, 10]: 61.5%
siRNA transfection efficiency in cells (%) [5, 11]: 3.5%
siRNA transfection efficiency in cells (%) [5, 12]: 10.1%
siRNA transfection efficiency in cells (%) [5, 13]: 42.0%
siRNA transfection efficiency in cells (%) [6, 11]: 11.6%
siRNA transfection efficiency in cells (%) [6, 12]: 19.2%
siRNA transfection efficiency in cells (%) [6, 13]: 60.7%
siRNA transfection efficiency in cells (%) [7, 11]: 5.3%
siRNA transfection efficiency in cells (%) [7, 12]: 4.4%
siRNA transfection efficiency in cells (%) [7, 13]: 7.0%

Reference: patent publication US20080234464A1, “Compound Having Amino Acid Residue or Peptide Residue and Process for Producing the Same” (priority 2005, published 2008)
